According to patent US9649333B2, “Oxygenation procedures for newborns and devices for use therein” (UTI Limited Partnership, priority 2008, dated 2017):
Read-outs that look alike come from different tables or passages of the source.

Test system: preterm infants
Conditions: for time immediately after birth to reach the target range: FIG. 3
Source text: Blinded, randomized control trial of delivery room resuscitation in infants 32 weeks gestation comparing three O2 strategies. The High O2 Burden (HOB) group received a static concentration of 100% O2. In the Moderate O2 Burden (MOB) and Low O2 Burden (LOB) groups, resuscitation started with 100% and 21% O2, respectively. The inspired oxygen concentration was adjusted by 20% every 15 seconds in the MOB and LOB groups until the target SpO2 range of 85% to 92% was reached. SpO2 measurements were recorded every 2 seconds from the right wrist (pre-ductal) and the maximum sensitivity setting of the pulse oximetry was used. An anesthesia monitor continuously measured and recorded respiratory parameters including the peak inspiratory pressure, respiratory rate, end-tidal CO2 and inspired O2 concentration.
There were three sets of preterm infants that were part of this study. The LOB (low oxygen burden group—resuscitation began with room air given followed by a 20% increase every 15 sec as long as the oxygen saturation was less than 85%), MOB ([…] began with 100% oxygen given and decreased 20% every 15 sec as long as the oxygen saturation was greater than 92%) and HOB (high oxygen burden group—100% oxygen given continuously). The inventors enrolled 106 preterm infants (≦32 weeks gestation) (LOB=34, MOB=[…]).

[1] = HOB group: static 100% O2, target SpO2 85-92%
[2] = LOB group: start 21% O2, titrated
[3] = LOB group: start 21% O2, titrated, target SpO2 85-92%
[4] = MOB group: start 100% O2, titrated
[5] = MOB group: start 100% O2, titrated, target SpO2 85-92%

O=O [oxygen]
Mean duration of resuscitation (HOB group: static 100% O2): 590.62 s
mean proportion of resuscitation time spent in the target SpO2 range (85-92%) (HOB group: static 100% O2): 11%
Mean proportion of time above target [1]: 0.49
Mean proportion of time below target [1]: 0.40
proportion of time above range [1]: 49%
time immediately after birth to reach the target range (HOB group, target SpO2 85-92%): approximately 5 minutes
Mean proportion of time in target (High O2 Burden (HOB) group: static 100% O2, target SpO2 85-92%): 0.11
Mean duration of resuscitation [2]: 677.00 s
mean proportion of resuscitation time spent in the target SpO2 range (85-92%) [2]: 16%
Mean proportion of time above target [3]: 0.23
Mean proportion of time below target [3]: 0.61
proportion of time below range [3]: 61%
Mean proportion of time in target (Low O2 Burden (LOB) group: start 21% O2, adjusted by 20% every 15 seconds, target SpO2 85-92%): 0.16
more time in target range than the LOB group (MOB group versus LOB group, target SpO2 85-92%): approximately 25%
Mean duration of resuscitation [4]: 665.00 s
mean proportion of resuscitation time spent in the target SpO2 range (85-92%) [4]: 21%
Mean proportion of time above target [5]: 0.28
Mean proportion of time below target [5]: 0.51
time immediately after birth to reach the target range (MOB group, target SpO2 85-92%): approximately 5 minutes
Mean proportion of time in target (Moderate O2 Burden (MOB) group: start 100% O2, adjusted by 20% every 15 seconds, target SpO2 85-92%): 0.21
